Laboratory results: patent US20250332116A1, “CARBON-BASED ANTI VIRAL NANOPARTICLES” (PORTO CONTE RICERCHE SOCIETA A RESP[…], priority 2021, published 2025)
Converted amounts (≈) assume the structure as drawn.

Tests used:
SARS-CoV-2 = assay: Antiviral activity assay (SARS-CoV-2 nucleoprotein ELISA, CPE observation) in Vero E6 cells; format: cell-based; conditions: Severe acute respiratory syndrome coronavirus 2, Vero C1008
MTS cytotoxicity assay = conditions: African green monkey (Cercopithecus aethiops), Vero E6 cells

What does the source list for CCC(CC)COC(=O)[C@H](C)N[P@](=O)(OC[C@H]1O[C@@](C#N)(c2ccc3c(N)ncnn23)[C@H](O)[C@@H]1O)Oc1ccccc1 [Remdesivir]?
activity at 0.05 µg/mL (SARS-CoV-2; 0.05 μg mL^−1, m.o.i. 0.01, 72 hours, ELISA, untreated infected control =100%, read-out: Antiviral activity (% viral NC protein, compared to untreated control)): 107 ± 23%; activity at 0.24 µg/mL (SARS-CoV-2; 0.24 μg mL^−1, m.o.i. 0.01, 72 hours, ELISA, untreated infected control =100%, read-out: Antiviral activity (% viral NC protein, compared to untreated control)): 96 ± 10%; activity at 1.2 µg/mL (SARS-CoV-2; 1.2 μg mL^−1, m.o.i. 0.01, 72 hours, ELISA, untreated infected control =100%, read-out: Antiviral activity (% viral NC protein, compared to untreated control)): 73 ± 9%; activity at 6 µg/mL (SARS-CoV-2; 6 μg mL^−1, m.o.i. 0.01, 72 hours, ELISA, untreated infected control =100%, read-out: Antiviral activity (% viral NC protein, compared to untreated control)): 14 ± 7%; IC50 (SARS-CoV-2; Vero E6, m.o.i. 0.01, 72 hours, nucleoprotein ELISA, read-out: 50% inhibitory concentration (IC50), SARS-CoV-2 viral replication): 1.9 µg/mL (≈ 3.15 µM); CC50 at 72 h (MTS cytotoxicity assay): > 120 µg/mL; viability at 72 h, 2.4 μg mL^−1 (MTS cytotoxicity assay): 94.1 ± 1%; viability at 72 h, 12 μg mL^−1 (MTS cytotoxicity assay): 98.9 ± 6.7%; viability at 72 h, 60 μg mL^−1 (MTS cytotoxicity assay): 82.1 ± 2.2%
